Values quoted from earlier work as cited in patent US4081530A, “Extended chain derivatives of somatostatin” (Ayerst, McKenna & Harrison Limited, priority 1975, dated 1978).

Settings: somatostatin-like activity

## [Ala^3,14 ]-somatostatin (AGAKNFFWKTFTSA; Somatostatin-14; UniProt P61278 103-116, looked up, variant C3A C14A) [somatostatin analog synthesised by solid phase methods (Sarantakis et al.)]
  activity as share of somatostatin's potency: about 0.01%
